# What was measured:
# HIVLAI RT 67N/70R/215I = assay: Drug susceptibility assay in P4/R5 cells, site-directed mutant; assay type: cell-based, HIV-1
# Method: (§1) Drug susceptibility assays. NRTI susceptibility was determined in P4/R5 cells as described previously (Parikh, U. M., et al. 2005. Antimicrob. Agents Chemother. 49:1139-44). Briefly, threefold dilutions of inhibitor were added to P4/R5 cells in triplicate and cells were infected with an amount of virus that produced 100 relative units of light (RLU) in no drug, virus control wells. After 48 hours, the cells were lysed (Gal-Screen; Tropix/Applied Biosystems, Foster City, Calif.) and the RLU was measured using a ThermoLabSystems luminometer (Waltham, Mass.). The IC50 and fold-resistance were calculated as described above. IC50 values from at least three independent experiments were log10 transformed and compared for statistically significant differences using the two-sample Student's t test.
# (§2) Construction of mutant recombinant HIV-1. Mutant recombinant plasmid clones of virus were generated by oligonucleotide site-directed mutagenesis as described previously (Shi, C., and J. W. Mellors. 1997. A recombinant retroviral system for rapid […] analysis of human immunodeficiency virus type 1 susceptibility to reverse transcriptase inhibitors. Antimicrob. Agents Chemother. 41:2781-5), using the p6HRT-MO plasmid. p6HRT-MO contains the entire RT and protease coding sequence as previously described (Le Grice, S. F., and F. Gruninger-Leitch. 1990. Rapid purification of homodimer and heterodimer HIV-1 reverse transcriptase by metal chelate affinity chromatography. Eur. J. Biochem. 187:307-14) and four silent restriction sites (Xma I, Mlu I, Xba I, and NgoM IV from the 5′ to 3′ end of RT at codons 14, 358, 490 and 554, respectively). After site-directed mutagenesis (QIAamp kit, QIAGEN, Valencia, Calif.), the mutated RT was ligated into pxxHIV-1LAI MO that contains the entire genome of HIV-1LAI and the same silent restriction sites as p6HRT-MO. Infectious virus was generated by electroporating the mutated xxHIV-1LAI MO plasmid into MT-2 cells as described above. All mutations in recombinant viruses were confirmed by full-length sequencing of the entire RT coding region.
# [1] = system: HIVLAI RT 67N/70R/215F/371V; assay: as above; assay type: cell-based, HIV-1
# Method: as §1, §2
# HIVLAI RT 67N/70R/371V = assay: as above; assay type: cell-based, HIV-1
# Method: as §1, §2
# HIVLAI RT D67N/K70R = assay: as above; assay type: cell-based, HIV-1
# Method: as §1, §2
# HIVLAI RT A371V/Q509L = assay: as above; assay type: cell-based, HIV-1
# Method: as §1, §2
# [2] = system: HIVLAI RT D67N/K70R/A371V/Q509L; assay: as above; assay type: cell-based, HIV-1
# Method: as §1, §2
# [3] = system: HIVLAI RT D67N/K70R/T215F; assay: as above; assay type: cell-based, HIV-1
# Method: as §1, §2
# [4] = system: HIVLAI RT D67N/K70R/T215F/A371V/Q509L; assay: as above; assay type: cell-based, HIV-1
# Method: as §1, §2
# HIVLAI RT A371V = assay: as above; assay type: cell-based, HIV-1
# Method: as §1, §2
# [5] = system: HIVLAI containing the M41L/L210W/T215Y mutations (AZT^R HIVLAI) passaged in increasing concentrations of AZT; assay: AZT susceptibility of virus passaged in increasing AZT, selection starting with AZT^R HIVLAI; single-cycle assay in P4/R5 cells; assay type: cell-based, HIV-1; conditions: for Fold-Resistance: compared to wild-type passaged without AZT
# Method: Selection of AZT-resistant viruses. Resistant virus was selected in two independent experiments by the passage of wild-type HIVLAI or HIVLAI containing the M41L/L210W/T215Y mutations (AZT^R HIVLAI) in MT-2 cells in increasing concentrations of AZT. To initiate each selection experiment, MT-2 cells (1×10^6) were pretreated for two hours with 0.5 μM and 25 μM AZT for wild-type HIVLAI and AZT^R HIVLAI, respectively, before virus was added. Viral replication was monitored by CPE. At +3/4 CPE (3 or 4 syncytia per field at 100× magnified field), cell-free supernatant was harvested and 0.1 ml of supernatant was added to fresh MT-2 cells to initiate a new passage. The concentration of AZT was doubled every three passages. The selection pressure was increased from an initial AZT concentration of 0.5 μM to a final concentration of 32 μM for wild-type HIVLAI, and from 25 μM to 150 μM for the AZT^R HIVLAI. The concentration of drug required to inhibit viral replication by 50% (IC50) was calculated every five passages to identify changes in AZT susceptibility, and fold-resistance was determined by dividing the IC50 of the mutant virus by the IC50 of wild-type HIV-1LAI. The genotype of the passaged virus was determined as described above.
# as §1
# Selection of AZT-resistant virus. Two independent AZT selection experiments were conducted. One starting with wild-type HIV-1LAI and the second starting with AZT HIV-1LAI (encoding M41L/L210W/T215Y). Both viruses were serially passaged in MT-2 cells in increasing concentrations of AZT. After every 5 passages, AZT susceptibility was measured in a single-cycle viral replication assay in P4/R5 cells (described in Materials and Methods). Viral RNA was extracted, converted to cDNA and the entire coding region of RT (residues 1-560) was PCR amplified and sequenced to monitor the appearance of mutations. In the selection experiment starting with HIV-1LAI, AZT susceptibility was reduced 66-fold by passage 35 and two polymerase domain TAMs were identified: D67N and K70R (Table 1).
# HIV-1 RT D549N = conditions: D549N mutation; cited from earlier work
compound,measurement,setting,value
"Cc1cn([C@H]2C[C@H](N=[N+]=[N-])[C@@H](CO)O2)c(=O)[nH]c1=O [AZT, 3′-azido-3′-dideoxythymidine]",Fold-Resistance,HIVLAI RT 67N/70R/215I; 67N/70R/215I compared to wild-type,1.3 fold
same,IC50,"HIVLAI RT 67N/70R/215I; Human immunodeficiency virus 1, P4/R5, 67N/70R/215I, mean ± SD",0.3 ± 0.2 µM
same,Fold-Resistance,[1]; 67N/70R/215F/371V compared to wild-type,22 fold
same,IC50,"[1]; Human immunodeficiency virus 1, P4/R5, 67N/70R/215F/371V, mean ± SD",4.9 ± 2.9 µM
same,Fold-Resistance,HIVLAI RT 67N/70R/371V; 67N/70R/371V compared to wild-type,6.4 fold
same,IC50,"HIVLAI RT 67N/70R/371V; Human immunodeficiency virus 1, P4/R5, 67N/70R/371V, mean ± SD",1.4 ± 0.5 µM
same,Fold-Resistance,HIVLAI RT D67N/K70R; 67N/70R compared to wild-type,4.6 fold
same,IC50,"HIVLAI RT D67N/K70R; Human immunodeficiency virus 1, P4/R5, 67N/70R, mean ± SD",1.1 ± 0.6 µM
same,Fold-Resistance,HIVLAI RT A371V/Q509L; A371V/Q509L compared to wild-type,1.7 fold
same,IC50,"HIVLAI RT A371V/Q509L; Human immunodeficiency virus 1, P4/R5, A371V/Q509L, mean ± SD",0.3 ± 0.06 µM
same,Fold-Resistance,[2]; 67N/70R/371V/509L compared to wild-type,39 fold
same,IC50,"[2]; Human immunodeficiency virus 1, P4/R5, 67N/70R/371V/509L, mean ± SD",9.1 ± 5.2 µM
same,Fold-Resistance,[3]; 67N/70R/215F compared to wild-type,18 fold
same,IC50,"[3]; Human immunodeficiency virus 1, P4/R5, 67N/70R/215F, mean ± SD",3.8 ± 2.1 µM
same,Fold-Resistance,[4]; 67N/70R/215F/371V/509L compared to wild-type,934 fold
same,IC50,"[4]; Human immunodeficiency virus 1, P4/R5, 67N/70R/215F/371V/509L, mean ± SD",203 ± 40 µM
same,Fold-Resistance,HIVLAI RT A371V; A371V compared to wild-type,0.7 fold
same,IC50,"HIVLAI RT A371V; Human immunodeficiency virus 1, P4/R5, A371V, mean ± SD",0.2 ± 0.04 µM
same,IC50,"[5]; Human immunodeficiency virus 1, P4/R5, passage 1, AZT concentration 25 μM",21 µM
same,IC50,"[5]; Human immunodeficiency virus 1, P4/R5, passage 10, AZT concentration 50 μM",34 µM
same,IC50,"[5]; Human immunodeficiency virus 1, P4/R5, passage 25, AZT concentration 100 μM, M41L, D67D/N, L210W, L214F, T215Y",126 µM
same,IC50,"[5]; Human immunodeficiency virus 1, P4/R5, passage 30, AZT concentration 150 μM, M41L, D67D/N, L210W, L214F, T215Y",181 µM
same,IC50,"[5]; Human immunodeficiency virus 1, P4/R5, passage 35, AZT concentration 150 μM, M41L, D67N, L210W, L214F, T215Y",> 810 µM
same,Fold-Resistance,"[5]; passage 25, M41L, D67D/N, L210W, L214F, T215Y",39 fold
same,Fold-Resistance,"[5]; passage 30, M41L, D67D/N, L210W, L214F, T215Y",62 fold
same,increase in resistance (reduced susceptibility),HIV-1 RT D549N,12 fold
